Patent publication US20250120928A1 (University of Maryland, Baltimore, priority 2021, published 2025)

How the values were obtained:
[1] = tested on: LPS-stimulated bone marrow macrophages (BMMØ); assay: BMMØ cytokine secretion following LPS stimulation (ELISA, Luminex); format: cell-based, C57BL/6J mice
Protocol: (§1) Three hours later, cells were stimulated with 100 ng/mL LPS. After 48 hours, cell culture supernatants were collected and analyzed by enzyme-linked immunosorbent assays (ELISA) (BioLegend, San Diego, CA) to measure murine IL-6 and TNFα. MAGPIX Luminex bead-based multiplex ELISA (Thermo Fisher Scientific, Waltham, MA) measured for 7 various cytokines and chemokines, and data were analyzed using the Luminex xPONENT software (Millipore) as per manufacturer's instructions. The 7-plex panel included murine IFNβ, IL-10, IL-6, IL-1β, MCP-1 (CCL2), TNFα, and GROα (CXCL1).
as §1, with “After” for “Three hours later, cells were stimulated with 100 ng/mL LPS. After”, “(Milli-pore)” for “(Millipore)”, “TL-6,” for “IL-6,”

[2] = tested on: BMMØs; format: cell-based
Protocol: (§2) Three hours later, cells were stimulated with 100 ng/mL LPS. After 48 hours, cells were lifted using Versene and washed with cold PBS supplemented with 1% FBS and 0.4% 0.5 M EDTA (Quality Biological, Gaithersburg, MD). FcR blocking was performed with purified anti-mouse CD16/32 antibody (#101301) (Biolegend, San Diego, CA) prior to staining with Annexin V-FITC and propidium iodide kit (#640914) (BioLegend, San Diego, CA) for apoptosis and cell death. Cell staining was conducted according to BioLegend protocols for flow cytometry. Flow cytometry data were collected using a Becton Dickinson LSR II or Becton Dickinson Canto II flow cytometer. Flow plots and data processing was done using FCS Express 7 Flow Cytometry De Novo Software (De Novo, Glendale, CA).
as §2, with “After” for “Three hours later, cells were stimulated with 100 ng/mL LPS. After”

[3] = tested on: B cells (B220+) isolated from splenocytes; assay: Splenocyte apoptosis and cell death by AV/PI flow cytometry, B cells; format: cell-based
Protocol: Splenocytes were isolated from spleens as previously described. Briefly, 5-12-week C57BL/6J female mice were euthanized and the spleen was isolated. The spleen was processed into single-cell suspensions using a 40 μm cell strainer and flushed with cold PBS supplemented with 1% FBS and 0.4% 0.5 M EDTA (Quality Biological, Gaithersburg, MD). Erythrocytes were lysed with ACK lysis buffer (Quality Biological, Gaithersburg, MD). […] Subsequently, splenocytes were stimulated with 100 ng/mL LPS for 24 hours. Splenocytes were then washed with cold PBS supplemented with 1% FBS and 0.4% 0.5 M EDTA and FcR blocked, as previously mentioned. Splenocytes were then stained with purified anti-mouse PE/Cyanine7 CD45R/B220 antibody (#103222) (BioLegend, San Diego, CA) for the B cell population. SAHA and SAHA-OH apoptosis and cell death were then assessed using the FITC-AV Apoptosis Detection Kit with PI via flow cytometry, as previously mentioned. Flow cytometry data were collected using a Cytex Aurora flow cytometer. Flow plots and data processing was done using FCS Express 7 Flow Cytometry De Novo Software (De Novo, Glendale, CA).

[4] = tested on: T cells (CD3+) from splenocytes; assay: Splenocyte apoptosis and cell death by AV/PI flow cytometry, T cells; format: cell-based; settings: concentrations up to 30 μM
[5] = tested on: LPS-induced endotoxemia mouse model; assay: Plasma cytokine analysis in the LPS-induced endotoxemia mouse model; format: in vivo, male C57BL/6J mice; settings: 50 mg/kg i.p. 3 hours before 20 mg/kg LPS i.p.; blood 3 hours post-LPS
Protocol: Terminal cardiac blood draws from the left ventricle occurred 3 hours post LPS injections using a 25 g needle and 1 mL syringe into an EDTA coated lavender blood collection tube (BD Medical, Franklin Lakes, NJ). Blood samples were centrifuged at 1000×g for 10 minutes within 30 minutes of collection. Plasma was extracted and diluted 10,000-fold for ELISA IL-6 measurement and diluted 10-fold for TNFα measurements.
Terminal cardiac blood draws from the left ventricle occurred 3 hours post LPS injections using a 25 g needle and 1 mL syringe into an EDTA coated lavender blood collection tubes (BD Medical, Franklin Lakes, NJ). Blood samples were centrifuged at 1000×g for 10 minutes within 30 minutes of collection. Plasma was extracted and diluted 10,000-fold for ELISA IL-6 measurement and diluted 10-fold for TNFα measurements. MAGPIX Luminex bead-based multiplex ELISA (Thermo Fisher Scientific, Waltham, MA) of mouse plasma (diluted 100-fold) measured for 26 various cytokines and chemokines and data was analyzed using the Luminex xPONENT software (Millipore) as per manufacturer's instructions. The 26-plex panel include murine IL-1β, IL-2, IL-4, IL-5, IL-6, IL-9, IL-10, IL-12p70, IL-13, IL-17A (CTLA-8), IL-18, IL-22, IL-23, IL-27, GM-CSF, IFNγ, TNFα, MCP-1 (CCL2), MIP-1α (CCL3), MIP-10 (CCL4), RANTES (CCL5), MCP-3 (CCL7), Eotaxin (CCL11), GROα (CXCL1), MIP-2a (CXCL2), and IP-10 (CXCL10).

[6] = tested on: spleen and liver; assay: Hematoxylin and eosin (H&E) histology of spleen and liver, LPS-induced endotoxemia mice; format: in vivo, male C57BL/6J mice; settings: 50 mg/kg i.p. 3 hours before 20 mg/kg LPS; 3 hours post-LPS
Protocol: The differences in tissue architecture of liver and spleen were assessed using the same cohort of mice as the cytokine analysis at 3 hours post-LPS administration. Prior to tissue harvest, whole-body perfusion was performed post-cardiac blood draw by slowly flushing 10 mL of 37° C. PBS through the left ventricle of the heart while a cut in the right atrium allowed for the flow of blood. The liver and spleen were harvested, placed into tissue cassettes (VWR, Radnor, PA), and fixed overnight in 10% buffered formalin (Sigma-Aldrich, St. Louis, MO). The following day, the organs were paraffin-embedded and sectioned into 5 μm slices. Slides were stained for H&E to define histological architecture using standard procedures.
The differences in tissue architecture of liver and spleens were assessed at 3 hours post-LPS administration. Prior to tissue harvest, whole body perfusion was performed by slowly flushing 10 mL of 37° C. PBS through the left ventricle of the heart while a cut in the right atrium allowed for the flow of blood. The liver and spleen were harvested, placed into tissue cassettes, and fixed overnight in 10% buffered formalin. The following day, the organs were paraffin embedded and sectioned in 5 μm slices. Slides were stained for H&E to define histological architecture using standard procedures.

[7] = tested on: BMMØs; assay: Western blot analysis of acetyl-histone H3 and acetyl-α-tubulin; settings: 10 μM, unstimulated BMMØs, 4 and 9 hours
[8] = tested on: HDAC1, 2, 3; settings: comparison value for Tubastatin A; read-out: IC50 against HDAC1, 2, 3; cited from earlier work
[9] = 0-30 μM for 3 hours, then LPS 100 ng/mL 48 hours, ELISA

Compound	IL-6 cytokine secretion [1, 9]	TNFα cytokine secretion [1, 9]	MCP-1 cytokine secretions ([1]; 10 μM, 3 hours before 48-hour LPS)	secretion of IL-10 ([1]; 10 μM, 3 hours before 48-hour LPS, Luminex, SAHA compared to SAHA-OH)	apoptosis (AV+/PI−) over concentration ([2]; 0-30 μM)	viability (AV−/PI−) over concentration ([2]; 0-30 μM)	apoptosis (AV+/PI−) ([2]; 10 μM, 48 hours)	cellular viability (AV−/PI−) ([2]; 10 μM, 48 hours)	toxicity profile for the B cell population ([3]; 0-30 μM)	B cell death (AV+/PI+) ([3]; 10 μM, 24 hours)	B cell viability (AV−/PI−) ([3]; 10 μM, 24 hours)	toxicity for the T cell population [4]	reduction of plasma IL-6 [5]	reduction of plasma TNFα [5]	spleen tissue architecture (H&E) [6]	acetylation of α-tubulin [7]	IC50 [8]
O=C(CCCCCCC(=O)Nc1ccccc1)NO [SAHA, N^1-hydroxy-N^8-phenyloctanediamide, reference compound]	concentration-dependent reduction	concentration-dependent reduction	non-significantly affected	increased secretion	apoptosis induction	concentration-dependent viability reduction	96.8%	3.1%	concentration-dependent toxicity profiles	54.8%	9.5%	minimal toxicity	about 50%	about 50%	moderate histological disorganization	similarly resulted in the acetylation	
